# Assay results from patent publication US20210187014A1 (The Regents of the University of Colorado, a body corporate, priority 2018, published 2021).
# “Also recorded” adds a separate entry of the source.
# What was measured:
# C. elegans = test: Siderophore toxicity test: worm growth and mitochondrial morphology (mtGFP); type: in vivo; details: in vivo
# From the text: FIG. 8. Bacterial enterobactin promotes C. elegans development. […] (8E) The entA- and entF-mutant E. coli strains colonized the host gut as efficiently as the parental wild-type strain. (FIG. 8F) Cartoon diagram of feeding condition, microscope images and bar graph showing that neither pyoverdine nor ferrichrome caused obvious growth defects in worms fed heat-killed food plus wild-type, live E. coli. (FIG. 8G) Fluorescence microscopy of worms containing mtGFP under the same feeding condition as in (FIG. 8F). […] “n” =number of worms scored. Data are represented as mean±SEM. ***P<0.0001.
# whole worm lysates = test: Affinity chromatography with immobilized Ent and mass spectrometry to identify Ent-binding proteins; design: species or system C. elegans; details: two independent experiments
# Description: CTL-2 is a homolog of catalases that are known to bind iron. ATP-1 is the a-subunit of the mitochondrial ATP synthase that is not known for a role in iron biology (Junge and Nelson, 2015).
# Isolation of Enterobactin-binding proteins by biotin-IP and LC-MS. Total proteins were extracted from mixed stage worms and then pre-cleaned three times by adding 100 ul Dynabeads® M-280 Streptavidin. Equal volumes of these total protein extracts were then separated to two tubes. Biotin-Ent (5 ug) was added into one tube for IP and Biotin alone (5 ug) was added to another tube as the control, both were incubated overnight at 4° C. After incubating with Dynabeads® M-280 Streptavidin for 2 hours, the beads were washed at least 3 times by 1mL PBS. PBS was then removed from the beads and 200 uL 0.1 M ammonium bicarbonate (ABC)/0.001% deoxycholic acid (DCA) was added. The samples were reduced using 5 mM (final) TCEP at 60° C. for 30 min and alkylated using 15 mM iodoacetamide at room temperature for 20 min. 0.5 ug of trypsin was added to each sample and incubated overnight. The samples were then acidified using 7 uL of formic acid. DCA was removed from the samples by phasetransfer using ethyl acetate. The samples were desalted using a Pierce C18 spin column, and dried using a speed vac. […]
# ATP-1 = target: T1, ATP-1 (Caenorhabditis elegans, UniProt Q9XXK1); test: Iron-binding assay: 55FeCl3 +/- siderophore in worm lysates, ATP-1 immunoprecipitation; design: species or system C. elegans
# T1 construct: His; made in house; host or cells: E. coli (given only for the three ATP-1 segments)
# Description: The present inventors added radiolabeled iron (55FeCl3) to worm lysates and then immunoprecipitated ATP-1.
# In vitro binding assay. (a) Ent-biotin pull-down of total proteins: Ent-biotin and streptavidin beads were used to pull down interacting proteins from worm total protein extracts (same method as that in initial screen for Ent-binding proteins). Western blots were performed to detect ATP-1 (Thermo Fisher 43-9800). […] The assay was then quenched with a standard 5×SDS-PAGE_loading buffer (reducing). Proteins were separated by SDS-PAGE and transferred to_nitrocellulose membranes. The membranes were blocked for 1 h with 5% BSA in Trisbuffered saline (TBS) with 0.1% Tween 20 (TBST) at room temperature, followed by incubation for 1 h with horseradish peroxidase streptavidin (Cell Signaling_Technology,3999S) in TBST. After four washes with changes every 15 min in TBST, the_biotinylated proteins were visualized by enhanced chemiluminescence (GE Healthcare,_RPN2232). […] After IP, the amount of 55Fe was determined by liquid scintillation.
# ATP5A1 = target: T2, ATP5A1 (Homo sapiens, UniProt P25705); test: 55FeCl3 +/- Ent in HEK293T cell lysates, ATP5A1 immunoprecipitation; type: binding
# T2 construct: His
# HEK293T cells = test: In vivo mitochondrial iron uptake assay in HEK293T cells; type: cell-based, human
# HEK293 cells = test: Cellular iron level by Calcein AM fluorescence in HEK293 cells +/- iron chelator DFO; type: cell-based, human
# Description: Here, a similar test was done in human HEK293 cells. […] The present inventors then created a low-iron condition by adding an iron chelator, Deferoxamine (DFO) to the medium (FIG. 18A). […] The assay was also performed using mouse intestinal epithelial (MODE-K) cells.
# [1] = tested on: murine intestinal epithelial (MODE-K) cells; test: Cellular iron level by Calcein AM fluorescence in MODE-K cells +/- DFO; type: cell-based, mouse
# Description: The present inventors then created a low-iron condition by adding an iron chelator, Deferoxamine (DFO) to the medium (FIG. 18A). […] The assay was also performed using mouse intestinal epithelial (MODE-K) cells.
# liposomes = test: Iron traffic across the lipid bilayer of synthetic liposomes +/- ATPSα; type: biochemical
# Description: ATPSα (ATP-1 or ATP5A1) was added to the liposome by an established method. […] The Calcein AM dye was added to liposomes +/− ATPSα and the fluorescence intensity of the liposome was measured; (B) Liposomes were incubated with radiolabel ed Fe^3+ (''FeCl3) and the radioactivity (relative CPM) of the liposome was measured. Method (A) measures iron inside the liposome, since calcein AM is only inside.
# [2] = Ent stability by CAS liquid assay; type: physicochemical
# From the text: FIG. 25. […] Degradation is indicated by increased absorbance. […] Degradation is indicated by increased relative fluorescence. […] For all tests, dilutions were kept at room temp and exposed to light. Error is standard deviation of the mean.
# [3] = tested on: C. elegans smf-3/DMT1 mutant; test: Growth of iron-deficient C. elegans smf-3/DMT1(-) mutant with iron chelator 2,2'-bipyridyl; type: in vivo
# Description: FIG. 26. […] All tests were done on a smf-3/DMT1(-) mutant strain in a culture media where an iron chelator (2,2′-bipyridyl) was added to reduce the environmental iron level (FIG. 26A). […] This growth delay was rescued by supplementation with Ent, scored as the percentage of the population at the indicated growth stage. […] The entP,fepA: E. coli mutant cannot synthesize or utilize Enterobactin.
# SMF-3/DMT1 is a conserved divalent metal transporter that transports iron into intestinal cells. The smf-3/DMT1 mutant has been established as an iron deficiency model in C. elegans. These mutants have defective iron uptake that results in iron deficiency (Romney et al 2011) and delayed growth under iron-poor growth conditions created by addition of an iron chelator (2,2′-bipyridyl) to the culture media (Raj an et al 2019).
# To determine if the Enterobactin supplementation was benefiting the worm directly or benefiting the worm through an E. coli-dependent mechanism, the test was repeated using an E. coli double mutant that cannot synthesize or utilize Ent (entP,fepk).
# T1 sequence (Q9XXK1 whole entry): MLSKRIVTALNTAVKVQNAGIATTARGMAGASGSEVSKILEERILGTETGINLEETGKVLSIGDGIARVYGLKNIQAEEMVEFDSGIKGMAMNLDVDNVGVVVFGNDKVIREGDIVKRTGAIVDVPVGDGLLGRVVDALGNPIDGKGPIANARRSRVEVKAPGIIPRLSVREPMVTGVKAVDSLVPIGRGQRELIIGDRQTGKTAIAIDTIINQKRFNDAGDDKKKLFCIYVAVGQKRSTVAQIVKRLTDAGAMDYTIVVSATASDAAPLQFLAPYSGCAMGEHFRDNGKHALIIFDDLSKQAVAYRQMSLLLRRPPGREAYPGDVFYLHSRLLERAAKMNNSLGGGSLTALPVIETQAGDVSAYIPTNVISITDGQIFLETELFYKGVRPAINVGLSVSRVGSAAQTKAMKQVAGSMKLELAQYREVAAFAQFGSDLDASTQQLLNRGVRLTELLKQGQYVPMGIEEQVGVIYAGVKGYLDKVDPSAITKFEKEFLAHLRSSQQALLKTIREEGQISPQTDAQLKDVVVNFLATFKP
# T2 sequence (P25705 44-553): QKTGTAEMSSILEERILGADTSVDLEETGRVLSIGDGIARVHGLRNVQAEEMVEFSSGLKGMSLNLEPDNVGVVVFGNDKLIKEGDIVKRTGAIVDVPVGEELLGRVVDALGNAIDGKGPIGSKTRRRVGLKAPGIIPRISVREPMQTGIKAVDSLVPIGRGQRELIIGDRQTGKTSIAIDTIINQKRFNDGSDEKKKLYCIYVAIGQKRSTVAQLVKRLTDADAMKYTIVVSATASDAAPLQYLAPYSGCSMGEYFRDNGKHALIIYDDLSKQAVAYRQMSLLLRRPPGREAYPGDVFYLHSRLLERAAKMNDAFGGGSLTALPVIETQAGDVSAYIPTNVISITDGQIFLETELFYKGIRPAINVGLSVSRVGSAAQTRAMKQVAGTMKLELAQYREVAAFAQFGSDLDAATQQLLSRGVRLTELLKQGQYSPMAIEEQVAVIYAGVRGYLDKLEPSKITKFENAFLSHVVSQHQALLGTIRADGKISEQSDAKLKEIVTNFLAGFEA
smiles,measurement,setting,value
"O=C(N[C@H]1COC(=O)[C@@H](NC(=O)c2cccc(O)c2O)COC(=O)[C@@H](NC(=O)c2cccc(O)c2O)COC1=O)c1cccc(O)c1O [Ent, enterobactin]",mitochondrial morphology (mtGFP),C. elegans,did not disrupt mitochondrial morphology
same,candidate Ent-binding proteins captured,whole worm lysates,CTL-2 and ATP-1
same,increase in 55Fe associated with ATP-1-IP,ATP-1; whole worm lysates,> 10 fold
same,binding of ATP-1 to 55Fe,ATP-1; worm lysates,dramatically increased
same,level of 55Fe in ATP5A1-IP samples,ATP5A1,increased
same,iron level in mitochondria,HEK293T cells,prominently increased
same,decrease in Calcein AM fluorescence with Ent addition,"HEK293 cells; medium with DFO, Ent 1.5 uM",45%
same,iron level recovery,"HEK293 cells; medium with DFO, Ent 1.5 uM",mostly recovered; also recorded: largely recovered
same,increase of cellular iron uptake,HEK293 cells; standard culture medium,~33%
same,effect on cellular iron level,[1]; iron-poor/DFO condition,more pronounced
same,cellular iron level,[1]; standard medium,modestly increased the cellular iron level
same,level of iron inside the liposome (Calcein AM),liposomes; FeCl3 +/- Ent 1.5 uM,clearly boosted
same,level of iron associated with the liposome (radioactivity),liposomes; radiolabeled FeCl3 +/- Ent 1.5 uM,clearly boosted
same,stability,"[2]; 100% DMSO, room temp, light",little change during the assay period
same,stability in H2O at varying pH,[2]; H2O pH 6.5/7,more stable than the other dilutions in acidic and basic H2O
same,time of rapid degradation,"[2]; H20 (pH 5.5) with 10% DMSO, room temp, light",≤ 60 min
same,stability in deionized water,[2]; pH 5.5,highly unstable
same,growth of smf-3(-) mutants,[3]; E. coli double mutant that cannot synthesize or utilize Ent,rescued the growth of smf-3(-) mutants to adulthood
same,growth of smf-3(-) mutants,"[3]; iron chelator 2,2'-bipyridyl in media",rescued the growth of smf-3(-) mutants to adulthood
